Measurements published in US7049321B2, “Methods and pharmaceutical compositions for treatment of central and peripheral nervous system disorders and compounds useful therefor” (Israel Institute for Biological Research, priority 2002, dated 2006).
Read-outs that look alike come from different tables or passages of the source.

Tests used:
[1] = rat, in vivo, po
Method: This calculation was based on the brain weight (2 gr) vs. total plasma volume (14 ml).

ApoE = ApoE synthesis and secretion in primary type 1 astrocytes; assay type: cell-based, rat
Method: Primary cultures of type 1 astrocytes were derived from the cortex of Sprague Dawley rats. The compounds tested were dissolved in the culture media and added to cells for 24, 48, 72 and 96 hrs. Media was then removed and kept frozen until ApoE protein levels were evaluated by immunoblot analysis as described in Poirier et al Neuroscience 55: 81–90 (1993). Alternatively the methods of Cedazo-Minuez et al [Neurosci 105: 651–661, 2001} may be employed.

[2] = system: Primary mixed rat cortical neurons infected with recombinant Semliki Forest virus encoding human APP695 or APP C99 or C111; test: Aβ levels in vitro in infected cortical neurons; assay type: cell-based
Method: The mechanism of Aβ modulation was tested using C99 (and C111) that are truncated constructs generated from APP. Unlike APP, C99/C111 are direct substrates for γ-secretase. With both constructs it is possible to directly assay for γ-secretase activity, while with APP this is not possible. Both constructs are—as compared to APP—inefficient substrates for α-secretase. Synergistc effects were also evaluated with CDX (methyl-β-cyclodextrin), an agent which extracts cholesterol from the plasma membrane. CDX inhibits also Aβ production. CDX-treated cells were treated in addition to the respective muscarinic agonist for 5 min to reduce the cholesterol content.

CYP3A4 = CYP3A4 (Homo sapiens, UniProt P08684); test: Cytochrome P450 inhibition, CYP3A4; assay type: in vitro ADME; details: up to 10 μM
Sequence of CYP3A4 (P08684 whole entry): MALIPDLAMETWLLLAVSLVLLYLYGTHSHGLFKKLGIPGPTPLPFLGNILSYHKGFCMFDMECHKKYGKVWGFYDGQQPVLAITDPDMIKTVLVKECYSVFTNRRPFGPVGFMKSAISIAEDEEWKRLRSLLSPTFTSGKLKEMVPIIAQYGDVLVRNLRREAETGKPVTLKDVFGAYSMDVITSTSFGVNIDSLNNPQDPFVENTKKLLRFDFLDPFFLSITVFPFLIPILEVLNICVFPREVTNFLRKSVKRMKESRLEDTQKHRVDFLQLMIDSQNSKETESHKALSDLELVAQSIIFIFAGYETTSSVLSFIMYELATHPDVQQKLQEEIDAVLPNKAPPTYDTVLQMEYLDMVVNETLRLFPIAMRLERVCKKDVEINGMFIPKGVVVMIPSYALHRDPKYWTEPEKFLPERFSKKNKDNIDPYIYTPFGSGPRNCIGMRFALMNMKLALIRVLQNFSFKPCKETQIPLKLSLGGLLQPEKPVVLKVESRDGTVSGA
Method: Cytochrome P450 activity can be an indicator for potential drug-drug interactions. AF292 was evaluated in a microtiter plate assay for P450 inhibition.

Structure (SMILES) | % of the compound found in the brain (Cmax brain/Cmax plasma) ([1]; female) | % of the compound found in the brain (Cmax brain/Cmax plasma) ([1]; male) | inhibition at 0.0001 µM (ApoE; Rattus norvegicus, Astrocyte, at 0.1 nM, read-out: Inhibition of ApoE production) | ApoE production (ApoE; up to 96 hrs) | Active concentration range, decrease of Aβ [2] | Potency in decreasing Aβ levels relative to AF150(S) [2] | Reduction of release of Aβ-like fragments (3–4 Kda) [2] | γ secretase activity reduction [2] | p3 fragment ([2]; 1 mM) | Decrease of Aβ together with CDX ([2]; with CDX (5 mM), to undetectable Aβ levels) | Inhibition of CYP3A4 (CYP3A4)
CC[C@@H]1SC2(CCN(C)CC2)NC1=O [AF267B, (S)-2-ethyl-8-methyl-1-thia-4,8-diaza-spiro[4.5]decan-3-one] | 16% | 25% | 60 to 80% | inhibits the production of ApoE | active in the μM range | at least 5 fold | approximately 50% | 50% | complete loss | synergistic effect | –
CC[C@@H]1SC2(CCNCC2)NC1=O [AF292, (S)-2-Ethyl-1-thia-4,8-diaza-spiro[4.5]decan-3-one] | – | – | – | – | – | – | – | – | – | – | did not induce significant inhibition
